IC50 data for 25 compounds are collected here from patent US8993756B2 (Merck Sharp & Dohme Corp., priority 2011, dated 2015).

For assay [1], the target named is JAK3 (Homo sapiens (Human), UniProt P52333). In words: Jak Biochemical HTRF Assay (JAK3). The note with it: recombinant GST-tagged catalytic domain, [ATP] 2.9 μM. (In general: Time-resolved FRET reads energy transfer from a long-lived donor to a nearby acceptor.)
The target of assay [2] is JAK2 (Homo sapiens (Human), UniProt O60674). In words: Jak Biochemical HTRF Assay (JAK2). Conditions: recombinant GST-tagged catalytic domain, [ATP] 8.5 μM.
Sequence of JAK2 (O60674 849-1124): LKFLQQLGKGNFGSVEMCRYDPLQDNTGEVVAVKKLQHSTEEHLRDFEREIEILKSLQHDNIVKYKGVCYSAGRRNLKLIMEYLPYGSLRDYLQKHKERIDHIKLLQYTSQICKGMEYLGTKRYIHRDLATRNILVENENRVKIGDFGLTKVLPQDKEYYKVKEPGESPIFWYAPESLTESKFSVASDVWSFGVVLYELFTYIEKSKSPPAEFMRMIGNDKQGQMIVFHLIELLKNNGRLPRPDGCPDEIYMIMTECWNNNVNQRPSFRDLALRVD

Sequence of JAK3 (P52333 822-1111): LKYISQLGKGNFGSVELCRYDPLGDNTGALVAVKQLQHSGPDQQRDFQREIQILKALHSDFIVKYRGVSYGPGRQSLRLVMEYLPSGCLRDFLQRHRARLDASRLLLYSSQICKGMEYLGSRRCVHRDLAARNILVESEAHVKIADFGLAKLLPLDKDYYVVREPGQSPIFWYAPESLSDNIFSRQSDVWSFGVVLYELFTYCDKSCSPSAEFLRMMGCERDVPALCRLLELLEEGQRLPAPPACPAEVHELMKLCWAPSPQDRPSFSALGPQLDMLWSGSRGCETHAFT

In general, IC50 refers to the point on the concentration scale where inhibition reaches its midpoint. Consider `CCOC(=O)c1c[nH]c2ncnc(-c3cnn4c3CCCC4)c12` [Example 1-62, ethyl 4-(4,5,6,7-tetrahydropyrazolo[1,5-a]pyridin-3-yl)-7H-pyrrolo[2,3-d]pyrimidine-5-carboxylate], for which the IC50 in assay [1] (given as range class) is 10 to 500 nM; in assay [2] (given as range class), more than 500 nM.
Regarding `CCOC(=O)c1c[nH]c2ncnc(-c3coc4ccccc34)c12` [Example 1-63, ethyl 4-(1-benzofuran-3-yl)-7H-pyrrolo[2,3-d]pyrimidine-5-carboxylate], the half-maximal inhibitory concentration (IC50) in assay [1] (given as range class) was 10 to 500 nM; in assay [2] (given as range class) it was more than 500 nM.
The matching figures for `CCOC(=O)c1c[nH]c2ncnc(-c3cccc4[nH]ncc34)c12` [Example 1-64, ethyl 4-(1H-indazol-4-yl)-7H-pyrrolo[2,3-d]pyrimidine-5-carboxylate]: 10 to 500 nM and more than 500 nM.
The corresponding values for `CCOC(=O)c1c[nH]c2ncnc(-c3ccc4c(c3)CNC4=O)c12` [Example 1-65, ethyl 4-(1-oxo-2,3-dihydro-1H-isoindol-5-yl)-7H-pyrrolo[2,3-d]pyrimidine-5-carboxylate] are 10 to 500 nM and 10 to 500 nM.
With `CCOC(=O)c1c[nH]c2ncnc(-c3ccc4c(c3)n(C)c(=O)n4C)c12` [Example 1-66, ethyl 4-(1,3-dimethyl-2-oxo-2,3-dihydro-1H-benzimidazol-5-yl)-7H-pyrrolo[2,3-d]pyrimidine-5-carboxylate], the half-maximal inhibitory concentration (IC50) in assay [1] (given as range class) is 10 to 500 nM; in assay [2] (given as range class), more than 500 nM.
As for `CCOC(=O)c1c[nH]c2ncnc(-c3ccc4nnn(C)c4c3)c12` [Example 1-67, ethyl 4-(1-methyl-1H-benzotriazol-6-yl)-7H-pyrrolo[2,3-d]pyrimidine-5-carboxylate], the IC50 in assay [1] (given as range class) was 10 to 500 nM; in assay [2] (given as range class), more than 500 nM.
With `CCOC(=O)c1c[nH]c2ncnc(-c3cccc4c3CCCNC4=O)c12` [Example 1-68, ethyl 4-(1-oxo-2,3,4,5-tetrahydro-1H-2-benzazepin-6-yl)-7H-pyrrolo[2,3-d]pyrimidine-5-carboxylate], the concentration for half-maximal inhibition (IC50) in assay [1] (given as range class) is 10 to 500 nM; in assay [2] (given as range class), more than 500 nM.
As for `CCOC(=O)c1c[nH]c2ncnc(-c3ccc4[nH]ncc4c3)c12` [Example 1-69, ethyl 4-(1H-indazol-5-yl)-7H-pyrrolo[2,3-d]pyrimidine-5-carboxylate], the half-inhibitory concentration (IC50) in assay [1] was determined as 6.5 nM; in assay [2], 98 nM.
As for `CCOC(=O)c1c[nH]c2ncnc(-c3csc4ccccc34)c12` [Example 1-71, ethyl 4-(1-benzothiophen-3-yl)-7H-pyrrolo[2,3-d]pyrimidine-5-carboxylate], the IC50 in assay [1] (given as range class) is 10 to 500 nM; in assay [2] (given as range class) it was more than 500 nM.
On to `CCOC(=O)c1c[nH]c2ncnc(-c3ccc4[nH]nc(C(F)(F)F)c4c3)c12` [Example 1-72, ethyl 4-[3-(trifluoromethyl)-1H-indazol-5-yl]-7H-pyrrolo[2,3-d]pyrimidine-5-carboxylate], for which the half-maximal inhibitory concentration (IC50) in assay [1] (given as range class) was 10 to 500 nM; in assay [2] (given as range class), more than 500 nM.
Consider `CCOC(=O)c1c[nH]c2ncnc(-c3cccc4c3CNC4=O)c12` [Example 1-73, ethyl 4-(1-oxo-2,3-dihydro-1H-isoindol-4-yl)-7H-pyrrolo[2,3-d]pyrimidine-5-carboxylate], for which the figures for the IC50 in assay [1] (given as range class) and in assay [2] (given as range class) were 10 to 500 nM and more than 500 nM, respectively.
The matching figures for `CCOC(=O)c1c[nH]c2ncnc(-c3ccc4c(c3)CCN(C(=O)OC(C)(C)C)C4)c12` [Example 1-74, tent-butyl 6-[5-(ethoxycarbonyl)-7H-pyrrolo[2,3-d]pyrimidin-4-yl]-3,4-dihydroisoquinoline-2(1H)-carboxylate]: 10 to 500 nM and more than 500 nM.
As for `CCOC(=O)c1c[nH]c2ncnc(-c3ccc4c(c3)C(=O)NC4)c12` [Example 1-75, ethyl 4-(3-oxo-2,3-dihydro-1H-isoindol-5-yl)-7H-pyrrolo[2,3-d]pyrimidine-5-carboxylate], the values for the IC50 in assay [1] (given as range class) and in assay [2] (given as range class) were 10 to 500 nM and more than 500 nM, respectively.
Consider `CCOC(=O)c1c[nH]c2ncnc(-c3ccc4cn[nH]c4c3)c12` [Example 1-76, ethyl 4-(1H-indazol-6-yl)-7H-pyrrolo[2,3-d]pyrimidine-5-carboxylate], for which the concentration for half-maximal inhibition (IC50) in assay [1] (given as range class) and in assay [2] (given as range class) was 10 to 500 nM throughout.
As for `CCOC(=O)c1c[nH]c2ncnc(-c3ccc4c(c3)CN(C(=O)OC(C)(C)C)C4=O)c12` [Example 1-77, ethyl 4-[2-(tert-butoxycarbonyl)-1-oxo-2,3-dihydro-1H-isoindol-5-yl]-7H-pyrrolo[2,3-d]pyrimidine-5-carboxylate], the half-maximal inhibitory concentration (IC50) in assay [1] (given as range class) is 10 to 500 nM; in assay [2] (given as range class) it was more than 500 nM.
The corresponding values for `CCOC(=O)c1c[nH]c2ncnc(-c3ccc4c(c3)CN(C(=O)OC(C)(C)C)CC4)c12` [Example 1-78, tert-butyl 7-[5-(ethoxycarbonyl)-7H-pyrrolo[2,3-d]pyrimidin-4-yl]-3,4-dihydroisoquinoline-2(1H)-carboxylate] are 10 to 500 nM and more than 500 nM.
On to `CCOC(=O)c1c[nH]c2ncnc(-c3ccc4c(c3)CN(C(=O)OC(C)(C)C)CCO4)c12` [Example 1-79, tent-butyl 7-[5-(ethoxycarbonyl)-7H-pyrrolo[2,3-d]pyrimidin-4-yl]-2,3-dihydro-1,4-benzoxazepine-4(5H)-carboxylate], for which the IC50 is 10 to 500 nM in assay [1] (given as range class) and more than 500 nM in assay [2] (given as range class).
In the case of `CCOC(=O)c1c[nH]c2ncnc(-c3ccc(N)cc3)c12` [Example 1-80, ethyl 4-(4-aminophenyl)-7H-pyrrolo[2,3-d]pyrimidine-5-carboxylate], the figures for the IC50 in assay [1] and in assay [2] were 2.3 nM and 53 nM, respectively.
As for `CCOC(=O)c1c[nH]c2ncnc(-c3ccn[nH]3)c12` [Example 1-81, ethyl 4-(1H-pyrazol-5-yl)-7H-pyrrolo[2,3-d]pyrimidine-5-carboxylate], the values for the half-inhibitory concentration (IC50) in assay [1] (given as range class) and in assay [2] (given as range class) were 10 to 500 nM and more than 500 nM, respectively.
As to `CCOC(=O)c1c[nH]c2ncnc(-c3ccc4scnc4c3)c12` [Example 1-82, ethyl 4-(1,3-benzothiazol-5-yl)-7H-pyrrolo[2,3-d]pyrimidine-5-carboxylate], the IC50 in assay [1] (given as range class) and in assay [2] (given as range class) was 10 to 500 nM throughout.
Take `CCOC(=O)c1c[nH]c2ncnc(-c3ccc4cc[nH]c4c3)c12` [Example 1-83, ethyl 4-(1H-indol-6-yl)-7H-pyrrolo[2,3-d]pyrimidine-5-carboxylate]: the half-maximal inhibitory concentration (IC50) was 9.7 nM in assay [1] and 137 nM in assay [2].
As for `CCOC(=O)c1c[nH]c2ncnc(-c3cnc4[nH]ccc4c3)c12` [Example 1-84, ethyl 4-(1H-pyrrolo[2,3-b]pyridin-5-yl)-7H-pyrrolo[2,3-d]pyrimidine-5-carboxylate], the IC50 in assay [1] (given as range class) and in assay [2] (given as range class) was 10 to 500 nM each time.
For the compound `CCOC(=O)c1c[nH]c2ncnc(-c3ccc(N4CCN(C)CC4)cc3)c12` [Example 1-85, ethyl 4-[4-(4-methylpiperazin-1-yl)phenyl]-7H-pyrrolo[2,3-d]pyrimidine-5-carboxylate], the IC50 in assay [1] (given as range class) is 10 to 500 nM; in assay [2] (given as range class), more than 500 nM.
With `CCOC(=O)c1c[nH]c2ncnc(C3=CCC(O)CC3)c12` (centres unmarked) [Example 1-86, ethyl 4-(4-hydroxycyclohex-1-en-1-yl)-7H-pyrrolo[2,3-d]pyrimidine-5-carboxylate], the half-maximal inhibitory concentration (IC50) in assay [1] (given as range class) and in assay [2] (given as range class) was 10 to 500 nM each time.
For `CCOC(=O)c1c[nH]c2ncnc(-c3ccc(N4CCN(C)CC4)nc3)c12` [Example 1-87, ethyl 4-[6-(4-methylpiperazin-1-yl)pyridin-3-yl]-7H-pyrrolo[2,3-d]pyrimidine-5-carboxylate], the IC50 in assay [1] (given as range class) is 10 to 500 nM; in assay [2] (given as range class) it was more than 500 nM.
